Reference: the supplement of paper PMC10949913

Experiments:
Details in all cases: 48 h
[1] = test system: CU-ACC1; assay: AC50 viability; higher = less potent
How it was run: (§1)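 Three adrenocortical carcinoma cell lines were seeded at 500–1,000 cells/well in 5 µL medium in 1,536-well plates. 23 nL of each MIPE 5.0 library compound was added at 11 concentrations. After 48 h (per the protocol name), CellTiter-Glo was added for 15 minutes at room temperature and luminescence was read. Signals were normalised per plate to vehicle and empty-well controls. AC50 and area under the curve came from fitted concentration-response curves, keeping only inhibitory or non-responding curve classes.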

[2] = test system: CU-ACC2; assay: AC50 viability; higher = less potent
How it was run: as §1

[3] = test system: NCI-H295R; assay: AC50 viability; higher = less potent
How it was run: as §1

[4] = test system: CU-ACC1; assay: area under concentration-response curve (viability) (AUC (a.u.)); higher = less active
How it was run: as §1

[5] = test system: CU-ACC2; assay: as above
How it was run: as §1

[6] = test system: NCI-H295R; assay: as above
How it was run: as §1

SMILES	AC50 viability [1] [µM]	AC50 viability [2] [µM]	AC50 viability [3] [µM]	area under concentration-response curve [4]	area under concentration-response curve [5]	area under concentration-response curve [6]
Nc1ccc(/C=C/C(=O)NCc2cc3cc(-c4ccc(C(=O)N5CCC(F)(F)CC5)cc4)cc(-c4ccc(F)cc4)c3o2)cn1	2.09	2.35	3.32	340	447	458
CC(C)NC(=O)COc1cccc(-c2nc(Nc3ccc4[nH]ncc4c3)c3ccccc3n2)c1	13.2	3.72	9.34	481	507	523
Cc1nc(NC(=O)N2CCC[C@H]2C(N)=O)sc1-c1ccnc(C(C)(C)C(F)(F)F)c1	8.33	9.34	18.6	439	457	421
CCCc1cc(C(=O)N[C@H](Cc2ccc(-c3cccc(OC(F)(F)F)c3)nc2)C(=O)N[C@@H]2CCNC2)sc1C	13.2	18.6	18.6	452	447	469
COc1cc(N2CCC(N(C)C)CC2)ccc1Nc1ncc(Cl)c(Nc2ccccc2P(C)(C)=O)n1	7.42	5.25	3.72	424	419	426
Cc1cccc(Nc2nc(-c3ccncc3)cs2)c1	20.9	16.6	14.8	497	549	531
CNc1nc(-c2ccc3c(N)n[nH]c3c2)cc(N2C[C@@H](C(=O)NC3CCCCC3)CC[C@H]2C)n1	20.9	20.9	18.6	458	544	506
COc1cc2c(Oc3ccc(NC(=O)C4(C(=O)Nc5ccc(F)cc5)CC4)cc3F)ccnc2cc1OCCCN1CCOCC1	10.5	9.34	6.61	469	549	436
c1cc(-c2cnn3cc(-c4ccc(OCCN5CCCCC5)cc4)cnc23)ccn1	11.8	9.34	10.5	404	456	450
Cc1ccc(NC(=O)NCc2ccc3c(c2)CN(C2CCC(=O)NC2=O)C3=O)cc1Cl (configuration not stated)	0.00372	0.0332	0.0166	137	289	234
O=C(/C=C/C#Cc1cccc(N[S+](=O)([O-])c2ccccc2)c1)NO	4.07	6.45	4.56	497	544	542
N#C/C(=C1/Nc2ccccc2S1)c1ccnc(OCc2ccc(CN3CCOCC3)cc2)n1	4.68	18.6	11.8	434	426	429
COc1cc2nccc(Oc3ccc(NC(=O)Nc4cc(C)on4)c(Cl)c3)c2cc1OC	14.8	29.5	14.8	422	516	415
Cc1cc(Nc2cc(CN3CCOCC3)c3nc(C)c(Cc4ccc(Cl)cc4F)n3n2)[nH]n1	37.2	18.6	23.5	440	439	420
CN(C)C/C=C/C(=O)Nc1cc2c(Nc3ccc(F)c(Cl)c3)ncnc2cc1O[C@H]1CCOC1	4.68	0.661	1.32	231	238	232
C=CCNC1=C2C[C@@H](C)C[C@H](OC)[C@H](O)[C@@H](C)/C=C(\C)[C@H](OC(N)=O)[C@@H](OC)/C=C\C=C(/C)C(=O)NC(=CC1=O)C2=O	10.5	13.2	37.2	433	418	515
CNC1CCC(N(Cc2cccc(-c3ccncc3)c2)C(=O)c2sc3c(F)ccc(F)c3c2Cl)CC1 (configuration not stated)	8.33	9.34	9.34	443	499	448
CCNCCc1ccc(CN(CC)c2cc(OC)ccc2[C@@H]2CCc3cc(O)ccc3C2)cc1	9.34	7.42	7.42	447	515	440
CC(=O)[C@]1(O)Cc2c(O)c3c(c(O)c2[C@@H](O[C@H]2C[C@H](N)[C@H](O)[C@H](C)O2)C1)C(=O)c1ccccc1C3=O	20.9	20.9	14.8	428	485	377
CC(C)c1cc(C(=O)N2Cc3ccc(CN4CCN(C)CC4)cc3C2)c(O)cc1O	2.35	0.833	3.72	371	445	445
COc1ccc(F)c(F)c1C(=O)c1cnc(NC2CCN([S+](C)(=O)[O-])CC2)nc1N	2.35	1.48	4.68	409	364	435
COc1cc2nc(N3CCCN(C)CC3)nc(NC3CCN(Cc4ccccc4)CC3)c2cc1OC	13.2	8.33	9.34	362	535	494
C[S+](=O)([O-])N1CCC(NC(=O)c2[nH]ncc2NC(=O)c2c(Cl)cccc2Cl)CC1	7.42	2.63	14.8	428	488	426
COc1cc(N2CCN(C)CC2)ccc1Nc1nccc(-c2cn(C)c3cnccc23)n1	33.2	18.6	20.9	451	507	464
CC(C)CNc1ccnc(NCc2csc(-c3ccccc3)n2)n1	3.72	23.5	16.6	445	591	531
CCC1=C2C=C(OC(=O)N3CCC(CC3)N4CCCCC4)C=CC2=NC\5=C1CN6C(=O)\C7=C(/C=C56)[C@@](O)(CC)C(=O)OC7	13.2	2.95	13.2	382	426	443

SMILES	AC50 viability [1] [µM]	AC50 viability [2] [µM]	AC50 viability [3] [µM]	area under concentration-response curve [4]	area under concentration-response curve [5]	area under concentration-response curve [6]
O=C(Nc1ccccc1-c1cn2c(CN3CCNCC3)csc2n1)c1cnc2ccccc2n1	6.61	7.42	2.95	367	366	358
C[N]1C=NC=C1C(N)(C2=CC=C(Cl)C=C2)C3=CC\4=C(C=C3)N(C)C(=O)\C=C4C5=CC(=CC=C5)Cl (configuration not stated)	11.8	11.8	6.61	336	298	397
CCN1CCN(Cc2ccc(NC(=O)Nc3ccc(Oc4cc(NC)ncn4)cc3)cc2C(F)(F)F)CC1	9.34	10.5	11.8	436	526	494
CCCCNc1ncc2c(-c3ccc(F)cc3)nn(C[C@H]3CC[C@H](N)CC3)c2n1	14.4	14.4	14.4	523	611	550
COc1ccc2c(c[n+](C)c3c4cc5c(cc4ccc23)OCO5)c1OC	20.9	33.2	20.9	445	465	402
C[C@@H]1C[C@@H]([C@H](O)CC2CC(=O)NC(=O)C2)C(=O)[C@@H](C)C1	1.05	0.59	2.95	345	333	405
CNCCCOc1cc(F)c(-c2c(Cl)nc3ncnn3c2N[C@@H](C)C(F)(F)F)c(F)c1	5.25	10.5	0.148	456	403	397
O=C(CCCCCCNC(=O)c1cnc(N(c2ccccc2)c2ccccc2)nc1)NO	18.6	11.8	20.9	364	552	525
CC1=C2N=C([NH]C2=CC(=C1)N3CCOCC3)\C4=C(NC[C@@H](O)C5=CC=CC(=C5)Cl)\C=C/NC4=O	0.00331	0.833	0.468	342	277	303
C=CC(=O)Nc1cccc(Sc2nc(Nc3ccc(N4CCN(C)CC4)cc3)ncc2Cl)c1	4.68	4.17	4.68	342	388	375
COc1cccc2c1C(=O)c1c(O)c3c(c(O)c1C2=O)C[C@@](O)(C(=O)CO)C[C@@H]3O[C@H]1C[C@H](N)[C@@H](O)[C@H](C)O1	10.5	8.33	18.6	424	507	510
CC1(C)OC/2=C(\[C@H](NCC3=CC=CC=C3)[C@@H]1O)C(=O)C4=CC=CC=C4C2=O	2.35	18.6	1.86	381	368	403
CCOc1cc(C(=O)N2CCC(N3CCN(C)CC3)CC2)ccc1Nc1ncc2c(n1)N(C1CCCC1)c1ccccc1C(=O)N2C	18.6	18.6	18.6	423	494	448
Clc1ccc(C(c2ccc(Cl)cc2)[n+]2ccn(CC(OCc3ccc(Cl)cc3Cl)c3ccc(Cl)cc3Cl)c2)cc1 (configuration not stated)	13.2	11.8	8.33	442	528	445
CC(C)C[C@H](NC(=O)[C@@H](NC(=O)c1cccc(-c2ccccc2)n1)[C@@H](C)O)B(O)O	0.0723	0.0723	0.144	300	297	337
Cc1ccc(C(=O)Nc2cccc(C(F)(F)F)c2)cc1-c1ccc2nc(NCCN3CCOCC3)ncc2c1	10.5	18.6	18.6	481	576	546
CCCCNc1ncc2c(-c3ccc(CN4CCN(C)CC4)cc3)cn([C@H]3CC[C@H](O)CC3)c2n1	16.6	7.42	10.5	476	544	481
C=CC(=O)Nc1cccc(Oc2nc(Nc3ccc(N4CCN(C)CC4)cc3)nc3ccsc23)c1	5.9	8.33	5.9	277	330	337
Cc1cc(C[S+](=O)([O-])c2ccccc2)cc(OCc2ccc(CN3CCC[C@@H]3CO)cc2)c1	14.8	20.9	26.3	428	463	425
NC1(C(=O)N[C@@H](CCO)c2ccc(Cl)cc2)CCN(c2ncnc3[nH]ccc23)CC1	3.72	18.6	5.9	432	515	463
CC(C)c1ccc(Cn2ccc3c4c(N)nc(NC5CC5)nc4ccc32)cc1	7.42	2.95	2.95	327	399	335
CCNC(=O)C#Cc1ccc2c(c1)NC(=O)/C2=C(\Nc1ccc(CN(C)C)cc1)c1ccccc1	0.91	2.88	2.57	443	536	524
CC[C@@]1(O)C(=O)OC\C2=C1\C=C\3N(CC4=C3N=C5C=CC=CC5=C4)C2=O	1.66	0.742	1.48	363	424	443
CCc1cc(C(N)=O)ccc1-n1nc(C(C)C)c2c(-n3cnc(-c4cnn(C)c4)c3)ccnc21	13.2	6.61	9.34	350	543	528
CC(C)C[C@H](NC(=O)CNC(=O)c1cc(Cl)ccc1Cl)B1OC(=O)CC(CC(=O)O)(C(=O)O)O1 (some centres not stated)	0.263	0.332	0.372	302	380	413
COc1cccc2c(NCc3ccccc3)nc(-n3c(N)nc4ccccc43)nc12	3.32	3.72	3.32	373	450	402
